Laboratory results from patent US11826351B2, “Compounds useful as kinase inhibitors” (Loxo Oncology, Inc., priority 2015, dated 2023).

Experiments:
[1] = target: T1, Recombinant BTK^C481S kinase (Homo sapiens, UniProt Q06187, C481S); test: BTK C481S binding affinity (LanthaScreen TR-FRET); conditions: Kinase Tracer 236, 5 h incubation
T1 construct: purchased SignalChem
Outline: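 BTK C481S tracer-displacement TR-FRET: 5 nM His-tagged kinase, 2 nM Eu anti-His antibody and 30 nM Kinase Tracer 236 incubated with titrated inhibitor for 5 h in Kinase Buffer A. Read at 340 nm excitation, 615/665 nm emission; IC50 from variable-slope log[inhibitor]–response fit.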

[2] = target: T2, Recombinant BTK^WT kinase (Homo sapiens, UniProt Q06187); test: BTK WT binding affinity (LanthaScreen TR-FRET); conditions: Kinase Tracer 236, 5 h incubation
T2 construct: purchased Invitrogen
T2 sequence (Q06187 whole entry): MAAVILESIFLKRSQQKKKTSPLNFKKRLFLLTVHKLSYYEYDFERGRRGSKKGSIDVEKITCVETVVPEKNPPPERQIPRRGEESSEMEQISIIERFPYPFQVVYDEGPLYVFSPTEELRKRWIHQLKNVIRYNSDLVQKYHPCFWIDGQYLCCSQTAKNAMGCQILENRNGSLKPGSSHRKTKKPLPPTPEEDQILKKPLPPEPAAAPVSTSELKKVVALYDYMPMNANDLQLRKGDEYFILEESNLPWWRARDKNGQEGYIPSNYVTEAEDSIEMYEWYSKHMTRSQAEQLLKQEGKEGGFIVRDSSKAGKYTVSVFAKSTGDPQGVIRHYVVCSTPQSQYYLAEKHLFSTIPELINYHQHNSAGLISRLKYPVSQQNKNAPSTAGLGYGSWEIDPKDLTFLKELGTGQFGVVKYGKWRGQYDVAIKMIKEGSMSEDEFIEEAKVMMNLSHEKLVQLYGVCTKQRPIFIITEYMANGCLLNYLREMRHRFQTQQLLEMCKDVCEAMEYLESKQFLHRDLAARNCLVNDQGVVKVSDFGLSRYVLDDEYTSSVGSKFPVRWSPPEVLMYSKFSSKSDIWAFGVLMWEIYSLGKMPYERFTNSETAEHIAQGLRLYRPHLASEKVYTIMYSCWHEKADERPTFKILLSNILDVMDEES
Outline: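 IC50 obtained by variable-slope fit of TR-FRET signal (ex 340 nm; em 615 and 665 nm) versus inhibitor concentration. Reaction held for 5 h in LanthaScreen Kinase Buffer A with 2.5 nM His-tagged BTK^WT, 15 nM Kinase Tracer 236 and 2 nM Eu anti-His antibody.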

Recombinant EGFR = target: T3, Recombinant EGFR (Homo sapiens, UniProt P00533); test: EGFR binding affinity (LanthaScreen TR-FRET); conditions: Kinase Tracer 199, 5 h incubation
T3 construct: purchased Invitrogen
T3 sequence (P00533 25-1210): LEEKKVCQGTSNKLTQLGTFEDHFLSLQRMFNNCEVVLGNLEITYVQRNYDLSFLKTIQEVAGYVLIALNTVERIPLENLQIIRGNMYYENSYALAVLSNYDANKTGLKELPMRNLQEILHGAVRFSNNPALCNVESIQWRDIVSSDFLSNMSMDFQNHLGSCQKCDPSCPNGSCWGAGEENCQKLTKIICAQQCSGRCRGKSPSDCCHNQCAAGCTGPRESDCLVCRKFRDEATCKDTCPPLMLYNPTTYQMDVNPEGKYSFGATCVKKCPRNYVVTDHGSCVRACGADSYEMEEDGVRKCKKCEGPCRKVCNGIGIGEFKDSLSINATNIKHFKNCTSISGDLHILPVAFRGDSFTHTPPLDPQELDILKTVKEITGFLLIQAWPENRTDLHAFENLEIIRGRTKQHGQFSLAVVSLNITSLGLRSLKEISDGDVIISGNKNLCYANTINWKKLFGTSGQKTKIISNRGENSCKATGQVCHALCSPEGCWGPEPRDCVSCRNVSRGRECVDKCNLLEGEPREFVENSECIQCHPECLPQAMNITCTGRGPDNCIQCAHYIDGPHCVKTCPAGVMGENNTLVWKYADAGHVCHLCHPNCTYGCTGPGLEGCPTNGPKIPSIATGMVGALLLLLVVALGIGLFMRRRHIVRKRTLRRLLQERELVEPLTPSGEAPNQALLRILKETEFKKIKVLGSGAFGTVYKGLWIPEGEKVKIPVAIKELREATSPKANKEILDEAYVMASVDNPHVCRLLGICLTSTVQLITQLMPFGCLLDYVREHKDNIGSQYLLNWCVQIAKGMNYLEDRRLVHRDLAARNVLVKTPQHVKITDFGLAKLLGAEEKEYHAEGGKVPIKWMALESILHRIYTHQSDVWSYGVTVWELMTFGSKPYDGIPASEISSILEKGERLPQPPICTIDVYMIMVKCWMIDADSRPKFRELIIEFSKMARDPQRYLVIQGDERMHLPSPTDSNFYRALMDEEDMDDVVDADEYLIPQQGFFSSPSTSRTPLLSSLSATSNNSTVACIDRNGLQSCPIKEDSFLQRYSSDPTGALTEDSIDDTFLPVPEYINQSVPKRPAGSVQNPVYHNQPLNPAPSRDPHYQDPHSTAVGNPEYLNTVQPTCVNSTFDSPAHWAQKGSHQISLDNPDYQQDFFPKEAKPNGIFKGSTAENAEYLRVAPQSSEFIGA
Outline: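 Compounds were titrated against recombinant EGFR and binding was followed by LanthaScreen time-resolved FRET.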

[3] = tested on: OCI-Ly10 human DLBCL cells; test: OCI-Ly10 anti-proliferative activity (Resazurin); format: cell-based; conditions: Homo sapiens, OCI-Ly10, 72 h, OCI-Ly10 cells, 72 h compound treatment, Resazurin; read-out: Proliferation Assay OCI-Ly10-20% FBS
Outline: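 A separate untreated plate gave the Day 0 reading, measured by Resazurin fluorescence at 590 nm after 5 h. The average Day 0 value was subtracted from each treated well, and results were expressed as percent of DMSO control. IC50 values came from a log[Inhibitor] vs response Variable Slope fit in Graphpad prism.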

T1 sequence (Q06187 whole entry C481S): as the sequence (Q06187 whole entry) above, with C481S counted along it

Compound | IC50 [1] [nM] | IC50 [2] [nM] | IC50 (Recombinant EGFR) [nM] | IC50 [3] [nM]
COc1ccccc1C(=O)NCc1cc(F)c(-c2nn(C3CCOC3)c(N)c2C(N)=O)cc1F (centres unmarked) [Example 152, 5-amino-3-[2,5-difluoro-4-[[(2-methoxybenzoyl)amino]methyl]phenyl]-1-tetrahydrofuran-3-yl-pyrazole-4-carboxamide] | 10 to 100 | 10 to 100 | > 10000 | 100 to 1000
COc1ccccc1C(=O)NCc1ccc(-c2nn(C3CCCC3)c(Cl)c2C(N)=O)cc1 [Example 78, 5-chloro-1-cyclopentyl-3-[4-[[(2-methoxybenzoyl)amino]methyl]phenyl]pyrazole-4-carboxamide] | 10 to 100 | 10 to 100 | > 10000 | 1000 to 10000
COc1ccccc1C(=O)NCc1ccc(-c2nn(C3CCCC3)c(N)c2C(N)=O)cc1 [Example 1, 5-amino-1-cyclopentyl-3-[4-[[(2-methoxybenzoyl)amino]methyl]phenyl]pyrazole-4-carboxamide] | < 10 | < 10 | 100 to 1000 | < 10
COc1ccccc1C(=O)NCc1ccc(-c2nn(C(C)c3cccnc3)c(N)c2C(N)=O)cc1 (centres unmarked) [Example 145, 5-amino-3-[4-[[(2-methoxybenzoyl)amino]methyl]phenyl]-1-[1-(3-pyridyl)ethyl]pyrazole-4-carboxamide] | 10 to 100 | 10 to 100 | > 10000 | 100 to 1000
COc1ccccc1C(=O)NCc1ccc(-c2nn(-c3cccc(C)c3)c(N)c2C(N)=O)cc1 [Example 50, 5-amino-3-[4-[[(2-methoxybenzoyl)amino]methyl]phenyl]-1-(m-tolyl)pyrazole-4-carboxamide] | < 10 | < 10 | 100 to 1000 | 10 to 100

More lines, now with the values ahead:

IC50 [1] [nM] | IC50 [2] [nM] | IC50 (Recombinant EGFR) [nM] | IC50 [3] [nM] | Compound
< 10 | < 10 | 100 to 1000 | 100 to 1000 | COc1ccccc1C(=O)NCc1ccc(-c2nn(C3CCOC(C(F)(F)F)C3)c(N)c2C(N)=O)cc1 (centres unmarked) [Example 111, 5-amino-3-[4-[[(2-methoxybenzoyl)amino]methyl]phenyl]-1-[2-(trifluoromethyl)tetrahydropyran-4-yl]pyrazole-4-carboxamide]
< 10 | < 10 | 1000 to 10000 | 10 to 100 | CCOC(=O)C1CCCC(n2nc(-c3ccc(CNC(=O)c4ccccc4OC)cc3)c(C(N)=O)c2N)C1 (single isomer, unassigned) [Example 58, ethyl 3-[5-amino-4-carbamoyl-3-[4-[[(2-methoxybenzoyl)amino]methyl]phenyl]pyrazol-1-yl]cyclohexanecarboxylate]
< 10 | 10 to 100 | 1000 to 10000 | 1000 to 10000 | COc1ccccc1C(=O)NCc1ccc(-c2nn([C@@H]3COC[C@H]3O)c(N)c2C(N)=O)cc1 (relative stereo) [Example 94, 5-amino-1-[trans-4-hydroxytetrahydrofuran-3-yl]-3-[4-[[(2-methoxybenzoyl)amino]methyl]phenyl]pyrazole-4-carboxamide]
< 10 | < 10 | 1000 to 10000 | 10 to 100 | COc1ccccc1C(=O)NCc1ccc(-c2nn(C3CN(C)CC3(F)F)c(N)c2C(N)=O)cc1 (centres unmarked) [Example 167, 5-amino-1-(4,4-difluoro-1-methyl-pyrrolidin-3-yl)-3-[4-[[(2-methoxybenzoyl)amino]methyl]phenyl]pyrazole-4-carboxamide]
< 10 | < 10 | > 10000 | 100 to 1000 | COc1ccccc1C(=O)NCc1ccc(-c2nn(C3CCCOC3)c(N)c2C(N)=O)c(F)c1 (centres unmarked) [Example 102, 5-amino-3-[2-fluoro-4-[[(2-methoxybenzoyl)amino]methyl]phenyl]-1-tetrahydropyran-3-yl-pyrazole-4-carboxamide]
< 10 | < 10 | 100 to 1000 | 10 to 100 | COc1ccccc1C(=O)NCc1ccc(-c2nn(-c3cccc(F)c3F)c(N)c2C(N)=O)cc1 [Example 81, 5-amino-1-(2,3-difluorophenyl)-3-[4-[[(2-methoxybenzoyl)amino]methyl]phenyl]pyrazole-4-carboxamide]
